Source: patent US11524950B2, “Treatment of immune-related and inflammatory diseases” (Celgene Corporation, priority 2012, dated 2022)

What was measured:
[1] = tested on: Human umbilical vascular endothelial cells; test: Human umbilical vascular endothelial cell tube formation assay; assay type: cell-based; conditions: VEGF-induced; at 10 μM; p<0.05 vs stimulated DMSO control
Description: Human Umbilical Vascular Endothelial Cell Tube Formation Assay: Compounds were tested in the growth factor-induced HUVEC tube formation assay. The tube formation plates were incubated at 37° C. for 30 minutes for matrigel to polymerize. The HUVECs were starved in 0.1% BSA basal EBM2 medium for 5 hours after washing with the same medium 3 times. The cells were trypsinized and centrifuged. Then 25 μL of 4× serially diluted compounds (10, 1, 0.1, 0.01, 0.001, 0.0001, 0.00001 μM) were added in duplicate with 50 μL of 2×10^4 cells/well to tube formation plates coated with matrigel. […] of 4×VEGF (final concentration=25 ng/mL) or bFGF (final concentration=10 ng/mL) were added to the plates. The cells were then incubated overnight (˜18 hours) at 37° C. in a humidified incubator. The tubule webs were stained with calcein AM at […] in 2% FBS/HBSS for 30 minutes and images taken by fluorescence microscopy. The tubules were quantified by the MetaMorph tube formation software program for tube area and tube length.
The percentage inhibition of cell proliferation, tube formation, migration, and invasion was calculated by subtracting the result for unstimulated DMSO control from test sample results, averaging all replicates, and normalizing to the growth factor-stimulated DMSO control (0% inhibition). The IC50 values were calculated by using GraphPad Prism 5.0.

IgM = IgM production by SLE patient PBMC (ELISA); conditions: Homo sapiens, read-out: IgM IC50 (nM) SLE (n = 3)
Description: Supernatants (from section 8.2.3) were harvested and analyzed by ELISA for IgG and IgM production (ZeptoMetrix Corp. Buffalo, N.Y.).
B Cell Differentiation Protocol: Enriched B cells were isolated from fresh buffy-coat (leukocyte enriched units) by Ficoll-Hypaque density gradient centrifugation followed by incubation with EasySep negative selection human B cell enrichment kit (Stem cell technologies). In brief, 2×10^8/ml PBMC were mixed with 4 ml of Robosep buffer and transferred to a 14 mL polystyrene round bottom tube. EasySep Human B cell enrichment cocktail (200 μL) was added per tube, vortexed and incubated at room temperature for 10 minutes. […] After cells were counted, an aliquot was removed for FACS analysis and the remaining cells were used for culture. […]
CD19+ peripheral blood human B cells from normal donors, or total peripheral blood mononuclear cell PBMC for patients with systemic lupus erythematosus (“SLE”), were cultured in the presence of interleukin (“IL”)-2, IL-10, IL15, TLR9 agonist, and CD40 L for 4 days, followed by IL-2, IL-6, IL-10 and IL-15 for another 3 days. Cells were counted, viability assessed, and expression of CD20, CD38, CD44, and CD83 were measured by flow cytometry. Plasmablast lineage factors IRF-4, BLIMP-1, XBP-1, and IgJ, and germinal center markers PAX-5 and BCL-6 were measured by qRT-PCR. […] Secreted immunoglobulins IgG and IgM were measured by ELISA.

DBA/2 mice = test: Bleomycin-induced dermal fibrosis mouse model (prevention); assay type: in vivo; conditions: 30 mg/kg, PO, QD
Description: DBA/2 mice were used in this study. Eight animals were used per treatment group in the study. Mice were kept in the animal house under standard conditions with food and water ad libidum.
The vehicle, 0.5% carboxymethyl cellulose (CMC)/0.25% Tween 80, was prepared in distilled H2O and dissolved overnight on a magnetic stirrer (add 0.5 g CMC; Sigma #C9481) and 0.25 ml Tween 80 (Sigma #P8074) to 99.75 ml to make a total of 100 ml 0.5% CMC/0.25% Tween 80).
The compound was suspended, not dissolved, in this vehicle. The formulation was homogenized with a Teflon pestle and mortar (Potter-Elvehjem tissue grinder) using a motorized Eberbach tissue homogenizer. The daily drug stock concentration used in these studies was 3 mg/ml.
Bleomycin was obtained from the pharmacy of the University of Erlangen-Nuremberg and freshly prepared once a week. Skin fibrosis was induced in 6-week-old DBA mice by local intracutaneous injections of 100 μl of bleomycin dissolved in 0.9% NaCl, at a concentration of 0.5 mg/ml, every other day in defined areas of 1.5 cm^2 on the upper back.
The mouse model of bleomycin induced dermal fibrosis is widely used to evaluate anti-fibrotic therapeutics. In this model, a localized dermal fibrosis is induced by intradermal injections with bleomycin every other day for 3 weeks. This model resembles early, inflammatory stages of SSc. To evaluate potential effects on prevention of fibrosis, treatment was initiated simultaneously with the first bleomycin injection. […] Treatment consisted of administration of the vehicle (0.5% CMC/0.25% Tween 80). • Untreated bleomycin group: Intradermal injection of bleomycin for three weeks. […] Injection of Imatinib (50 mg/kg; IP, QD). […] See Akhmetshina A. et al., Arthritis Rheum 2009; 60(1):219-224.
Dermal thickness was determined by staining with hematoxylin and eosin and activated fibroblasts by using immunohistochemistry for alpha smooth muscle actin (α-SMA). The dermal thickness, as determined by the modified Rodnan Skin Score, is currently the most common primary outcome in human clinical trials for anti-fibrotic agents in SSc. […] Dermal thickness was analyzed with a Nikon Eclipse 80i microscope (Nikon, Badhoevedorp, The Netherlands) by measuring the maximal distance between the epidermal-dermal junction and the dermal-subcutaneous fat junction at 4 different skin sections in each mouse. […]
For quantification of myofibroblasts, skin sections were deparaffinized and incubated with 5% bovine serum albumin for 60 minutes. Cells positive for α-SMA were detected by incubation with monoclonal anti-α-SMA antibodies (clone 1A4; Sigma-Aldrich, Steinheim, Germany) for 2 hours at room temperature followed by incubation with 3% hydrogen peroxide for 10 minutes. […]

CD44 = CD44 expression in B cell differentiation culture (flow cytometry); assay type: cell-based, human; conditions: Day 7; for percentage of CD20high/CD44high cells: DMSO 22.2%
Description: Immunophenotyping For Flow Cytometric Analysis: Cells were stained using multicolor direct immunofluorescence stain for flow cytometric analysis. Surface staining was performed before cell fixation and permeabilization. Cells (50 μl; 1×10^6 cells/ml in washing buffer, 2% FBS with 0.1% NaN3 in PBS) were used for each staining. The cells were stained with isotype control mAb ([…]) and multicolor FITC-conjugated anti-CD20 mAb and PE-conjugated anti-CD38 mAb, or PerCP-Cy5.5 conjugated anti-CD44 mAb, PE-conjugated anti-CD83 mAb were used for day 4 activated B cells (CD20+CD38-cells), and day 4 PBs and day 7 PBs (CD20-CD38+), and other staining, analyzed by flow cytometry as per manufacturer's instructions. The intracellular staining of transcription factor proteins (BCL-6, IRF-4, BLIMP-1, PAX-5 and XBP-1) and IgJ was performed according to the manufacturer's recommendations. Flow cytometric analysis was performed with a FACSCanto using FACSDiva 6 (BD Biosciences). For data analysis, Flowjo (Tree Star) software was used.
Using the same B cells in vitro differentiation system, the activity of the test compound on CD44 and CD83 expression in B cell differentiation was further investigated. Multicolor FITC-conjugated anti-CD20 mAb, PerCP Cy5.5-conjugated anti-CD44 mAb and PE-conjugated anti-CD83 mAb are used for day 4 and day 7 cells. The effect of the test compound was evaluated from 3 separate experiments representative of 3 donors.

SMILES | tube area and length [1] | IC50 (IgM) [nM] | prevention of dermal thickening (DBA/2 mice; 3 weeks, p<0.001) | reduction of number of α-SMA+ myofibroblasts (DBA/2 mice; p<0.05) [%] | CD44 mean fluorescence intensity (MFI) (CD44) | percentage of CD20high/CD44high cells (CD44; 2 nM) [%] | percentage of CD20high/CD44high cells (CD44; 20 nM) [%] | percentage of CD20high/CD44high cells (CD44; 200 nM) [%]
O=C1CC[C@@H](N2Cc3c(OCc4ccc(CN5CCOCC5)cc4)cccc3C2=O)C(=O)N1 [R-enantiomer, (R)-3-[4-(4-morphlin-4-ylmethylbenzyloxy)-1-oxo-1,3-dihydro-isoindo-2-yl]piperidine-2,6-dione] | significant inhibition |  |  |  |  |  |  | 
O=C1CC[C@H](N2Cc3c(OCc4ccc(CN5CCOCC5)cc4)cccc3C2=O)C(=O)N1 [Test compound, (S)-3-[4-(4-morphlin-4-ylmethylbenzyloxy)-1-oxo-1,3-dihydro-isoindo-2-yl]piperidine-2,6-dione] |  | 0.9 | approximately 25±0.49% | 24±0.09 | dose-dependently and significantly decreased | 18.4 | 10.1 | 6.6
